Assay results reported in patent publication US20150005347A1, “NITROGEN-CONTAINING HETEROCYCLIC DERIVATIVE HAVING 2-IMINO GROUP AND PEST CONTROL AGENT INCLUDING THE SAME” (MEIJI SEIKA PHARMA CO., LTD., priority 2012, published 2015).
Like-named read-outs stand apart in the source and are kept apart here.

What was measured:
Format in all cases: in vivo
[1] = test system: Sogatella furcifera exhibiting drug resistance to fipronil; assay: Foliar spray test, Sogatella furcifera exhibiting drug resistance to fipronil; details: 96 h, read-out: mortality of larvae
Description: Test Example 17 Pest Control Test of Sogatella furcifera
A drug solution of the compound of the present invention at a predetermined concentration, which had been prepared so as to be a 10% acetone water (0.05% Tween20 available), was foliar sprayed to a rice seedling in pot culture. […] Thereafter, the larvae were left to stand in a thermostatic chamber (16 hours of light period-8 hours of dark period) at 25° C. […] Test in duplicate.
(§1) Mortality of larvae(%)={number of dead larvae/(number of survived larvae+number of dead larvae)}×100
Further, for the origin of test pests, insects of Sogatella furcifera collected outdoors within the city of Odawara in 2010 were used.

[2] = test system: Frankliniella occidentalis; assay: Pest control test of Frankliniella occidentalis, kidney bean leaf disk foliar spray; details: Frankliniella occidentalis, foliar
Method in brief: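 Kidney bean leaf disks (2.8 cm) sprayed with compound in 50% acetone water with 0.05% Tween20, air-dried, then infested with first instar larvae. Held at 25° C, 16 h light/8 h dark; larval mortality (%) calculated from dead versus total larvae, in duplicate.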

Musca domestica = assay: Pest control test of Musca domestica adults, sucrose pledget; details: 50 ppm in 40% sucrose liquid; four days after release
Description: Test Example 21 Pest Control Test of Musca domestica
A drug solution of the compound of the present invention, which had been adjusted to be 50 ppm with a 40% sucrose liquid, was adsorbed on a pledget, and the pledget was put into a vial. Two adults reared indoors were released thereto. Thereafter, the adults were left to stand indoors at room temperature of 25° C. […] When two adults were all agonized in death, it was judged to be effective.

[3] = test system: Trigonotylus caelestialium; assay: Pest control test of Trigonotylus caelestialium, wheat seedling dipping; details: Trigonotylus caelestialium
Method in brief: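 Wheat seedlings (4 days post-sowing) dipped 30 s in compound in 50% acetone water with 0.05% Tween20, air-dried, then exposed to two second-instar larvae in a lidded glass tube at 25° C, water supplied from below. Larval mortality (%) = dead/(dead+survived)×100.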

[4] = test system: susceptible populations of Sogatella furcifera; assay: Soil irrigation test, susceptible populations of Sogatella furcifera
Description: A rice seedling in pot culture was subjected to soil irrigation treatment with a drug solution of the compound of the present invention at a predetermined concentration, which had been prepared so as to be a 10% acetone water. […] Thereafter, the larvae were left to stand in a thermostatic chamber (16 hours of light period-8 hours of dark period) at 25° C. […] The test was performed in duplicate.
as §1
Further, for comparison, the test against a populations of Sogatella furcifera which is highly susceptible to fipronil was performed by the same method as described above, and the results thereof are shown in Table 44.
In addition, for the origin of test pests, bugs collected within the city of Odawara in 2010 as the drug resistant Sogatella furcifera, and bugs collected within the city of Chigasaki in 1970 and then successively reared indoors for a long time as the susceptible populations of Sogatella furcifera were used.

[5] = test system: imidacloprid susceptible populations of Nilaparvata lugens; assay: Soil irrigation test, imidacloprid susceptible populations of Nilaparvata lugens
Method in brief: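 Potted rice seedlings soil-irrigated with compound in 10% acetone water at set concentrations; larvae held at 25 °C, 16 h light/8 h dark. Mortality % = dead/(dead + survivors) ×100, duplicate. Susceptible population: Kagoshima-collected, long-term lab-reared.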

Ctenocephalides felis = assay: Pest control test of Ctenocephalides felis on the body surface of a dog; details: 72 h, read-out: mortality of insects
Description: Test Example 26 Pest Control Test of Ctenocephalides felis
Three petri dishes with a diameter of 9 cm and a height of 1 cm were adhered to the back of a dog. Compound 1-20 of the present invention was dissolved in ethanol so as to be 5.35 mg/mL, and the mixture was added dropwise to the body surface of the dog in the petri dish. The petri dish was sufficiently dried, and then twenty insects of Ctenocephalides felis were released thereto. Each dog was housed in a cage and reared under conditions of 10 hours of light period and 14 hours of dark period at 23° C. Three days after the release, the petri dishes were detached therefrom to measure the numbers of living and dead insects of Ctenocephalides felis and blood-sucking individuals, and the mortality of insects was calculated according to the following equation.
(§2) Mortality of insects(%)={number of dead insects/(number of survived insects+number of dead insects)}×100

Nephotettix cincticeps = assay: Pest control test of Nephotettix cincticeps, soil irrigation treatment; details: for % Mortality, Test Example 14 Nephotettix cincticeps: soil irrigation treatment
Description: Test Example 14 Pest Control Test of Nephotettix cincticeps
A rice seedling in pot culture was subjected to soil irrigation treatment with a drug solution of the compound of the present invention at a predetermined concentration, which had been prepared so as to be a 10% acetone water. Three days after the treatment, five second instar larvae of Nephotettix cincticeps were each released thereto. Thereafter, the larvae were left to stand in a thermostatic chamber (16 hours of light period-8 hours of dark period) at 25° C. […] The test was performed in duplicate.
as §1

Coptotermes formosanus = assay: Pest control test of Coptotermes formosanus, treated filter paper; details: 168 h, read-out: mortality of insects
Description: Test Example 27 Pest Control Test of Coptotermes formosanus
A filter paper was allowed to be soaked in a drug solution of the compound of the present invention at a predetermined concentration, which had been prepared with acetone. The filter paper was sufficiently blow-dried and then put into a plastic petri dish, and 5 insects of Coptotermes formosanus (worker ant) were each released thereto. Thereafter, the insects were left to stand in a thermostatic chamber (16 hours of light period-8 hours of dark period) at 25° C. […] The test was performed in duplicate.
as §2

[6] = 72 h, read-out: mortality of larvae
[7] = read-out: % Mortality, Test Example7 Frankliniella occidentalis
[8] = read-out: % Mortality, Test Example8 Trigonotylus caelestialium

For FC(F)(F)C(=S)/N=c1\ccccn1Cc1ccc(Cl)nc1 [Compound 1-20, N-[1-((6-chloropyridin-3-yl)methyl)pyridin-2(1H)-ylidene]-2,2,2-trifluoroethanethioamide], which mortality at 20 ppm [1] is on record?
Its mortality at 20 ppm is no less than 80%.

And the mortality at 100 ppm [2, 6]?
Its mortality at 100 ppm is no less than 80%.

And the mortality at 500 ppm [2, 6]?
Its mortality at 500 ppm is no less than 80%.

What about the mortality at 20 ppm [2, 7] of the same compound?
The mortality at 20 ppm was 50%.

What about the mortality at 100 ppm [2, 7] of the same compound?
Its mortality at 100 ppm is 80%.

What about the “activity against adults (effective when two adults were all agonized in death)” value (Musca domestica) of the same compound?
Its value is “all the adults are agonized in death”.

What about the mortality at 10 ppm [3, 6] of the same compound?
Its mortality at 10 ppm is no less than 80%.

And the mortality at 50 ppm [3, 6]?
The mortality at 50 ppm was no less than 80%.

What about the mortality at 2 ppm [3, 8] of the same compound?
Its mortality at 2 ppm is 50%.

And the mortality at 10 ppm [3, 8]?
Its mortality at 10 ppm is 100%.

And the mortality at 50 ppm [3, 8]?
Its mortality at 50 ppm is 100%.

What about the “Insecticidal effects against Sogatella furcifera (mortality of larvae %), Susceptible populations six days after the treatment” value ([4]; Rate 0.005 mg/pot) of the same compound?
Its value is 75%.

What about the “Insecticidal effects against Sogatella furcifera (mortality of larvae %), Susceptible populations six days after the treatment” value ([4]; Rate 0.01 mg/pot) of the same compound?
Its value is 88%.

What about the “Insecticidal effects against Nilaparvata lugens (mortality of larvae %), Susceptible populations three days after the treatment” value ([5]; Rate 0.01 mg/pot) of the same compound?
Its value is 95%.

What about the “Insecticidal effects against Nilaparvata lugens (mortality of larvae %), Susceptible populations three days after the treatment” value ([5]; Rate 0.05 mg/pot) of the same compound?
Its value is 96%.

And the mortality at 5350 µg/mL (Ctenocephalides felis)?
The mortality at 5350 µg/mL was 100%.

What about the “% Mortality, Test Example 14 Nephotettix cincticeps” value (from here on “% Mortality”) (Nephotettix cincticeps; 0.0001 mg/pot) of the same compound?
The value was 67%.

What about the “% Mortality” value (Nephotettix cincticeps; 0.001 mg/pot) of the same compound?
Its value is 67%.

And the “% Mortality” value (Nephotettix cincticeps; 0.01 mg/pot)?
Its value is 100%.

What about the mortality of larvae (Nephotettix cincticeps; soil irrigation, 0.05 mg/seedling, three days after release) of the same compound?
The mortality of larvae was no less than 80%.

And the mortality at 0.5 µg/cm2 (Coptotermes formosanus)?
The mortality at 0.5 µg/cm2 was 100%.
